Holding throughout (type): biochemical
In assay [1] the target is T1, human manganese superoxide dismutase (hMn SOD), wild type, SEQ ID NO:2 (Homo sapiens, UniProt P04179).
T1 construct: where it is then cleaved off leaving the mature protein
T1 sequence (P04179 25-222): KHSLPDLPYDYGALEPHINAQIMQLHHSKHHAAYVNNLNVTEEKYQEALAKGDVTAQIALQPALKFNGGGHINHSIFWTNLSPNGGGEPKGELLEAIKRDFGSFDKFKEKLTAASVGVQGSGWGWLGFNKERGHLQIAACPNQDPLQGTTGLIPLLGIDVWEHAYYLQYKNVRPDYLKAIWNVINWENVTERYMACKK
The experiment in a line: Disproportionation of superoxide by wild type hMnSOD, Example 3 (Tables 4 and 5), 20° C. How it is done: (§1) Experiments were based on the stabilization of KO2 in aprotic solvent and the subsequent large dilution of this solution by an aqueous solution of enzyme in a stopped-flow apparatus, as described by McClune and Fee (1978). KO2 was dissolved in a mixture of dimethyl sulfoxide and […] (2:1 by volume; Aldrich, spectrophotometric grade) with solubility of KO2 enhanced with 18-crown-6 (Valentine and Curtis, 1975). The stopped-flow spectrophotometer (Kinetic Instruments, Ann Arbor, Mich.) was capable of efficient mixing of this solution with an acqueous solution of enzyme in buffer with a dead time between 1.5 and 2.0 ms. One drive syringe (capacity 50 μl) contained the aprotic solution of O2. This was diluted fifty-fold by the contents of a second syringe (capacity 2.5 ml) which contained enzyme, EDTA, and buffer. The decay of superoxide in initial velocity experiments and progress curves was monitored by its absorption at 250 to 300 nm. Stopped-flow experiments were carried out at […]. Four or more kinetic traces were averaged to reduce noise. Steady-state parameters were obtained by least-squares analysis of such data (Leatherbarrow (1987) "Enzfitter: a nonlinear regression data analysis program for the IBM PC" Elsevier BIOSOFT, Cambridge).
(§2) In the present study, several novel hMnSOD proteins containing substitutions of His 30 (referring to the amino acid sequence of SEQ ID NO:2) were prepared by PCR site directed mutagenesis and purified by column chromatography, as described in the Materials and Methods section above, and as also described by Hsu et al. (1996) J. Biol. Chem. 271: 1768; and Hsieh et al. (1998) Biochemistry 37: 4731. In particular, His 30 was substituted with each of Ala, Asn, Ser and Gln. The resulting novel hMnSOD proteins containing a His 30 substitution were then assayed for enzymatic activity and product inhibition at 20° C. by measuring the absorbance of superoxide at 250 nm using stopped-flow spectrophotometry, as described above in the Materials and Methods section. […]

Assay [2] concerns the target T2, human manganese superoxide dismutase (hMn SOD) variant H30A (His 30 replaced by Ala) (Homo sapiens, UniProt P04179, H54A).
T2 construct: as a mature protein tagged with an extra Met at the amino terminus; made in house
T2 sequence (P04179 25-222 H54A): T1 sequence (P04179 25-222) with H30A
As to the kind of experiment: Disproportionation of superoxide by H30A hMnSOD, stopped-flow, 20° C. The settings on record: pH 9.6, 20° C. On the procedure: as §1, §2

Assay [3] deals with T3, human manganese superoxide dismutase (hMn SOD) variant H30K (Homo sapiens, UniProt P04179, H54K).
T3 construct: as a mature protein tagged with an extra Met at the amino terminus; made in house
T3 sequence (P04179 25-222 H54K): T1 sequence (P04179 25-222) with H30K
As to the kind of experiment: Disproportionation of superoxide by H30K hMnSOD, 20° C. The settings on record: Table 4; pH 9.4, 20° C.

In assay [4] the target is T4, human manganese superoxide dismutase (hMn SOD) variant H30E (Homo sapiens, UniProt P04179, E155Q/H54E).
T4 construct: as a mature protein tagged with an extra Met at the amino terminus; made in house
T4 sequence (P04179 25-222 H54E/E155Q): T1 sequence (P04179 25-222) with H30E, E131Q
As to the kind of experiment: Disproportionation of superoxide by H30E hMnSOD, 20° C. The settings on record: Table 4; pH 9.4, 20° C.

For assay [5], the target named is T5, human manganese superoxide dismutase (hMn SOD) variant H30Q (His 30 replaced by Gln) (Homo sapiens, UniProt P04179, H54Q).
T5 construct: as a mature protein tagged with an extra Met at the amino terminus; made in house
T5 sequence (P04179 25-222 H54Q): T1 sequence (P04179 25-222) with H30Q
The experiment in a line: Disproportionation of superoxide by H30Q hMnSOD, stopped-flow, 20° C. The settings on record: pH 9.6, 20° C. How it is done: as §1, §2

The mark [6] stands for this setting: Table 4, 20° C., pH 9.4 per footnote.

SMILES strings stand for the structures. Changes are numbered by the printed parent chain.

Consider `[O]O` [superoxide], for which the kcat stood at 40 ms^.1 in assay [1] (setting [6]); 1.9 ms^.1 in assay [2] (Table 4); 0.74 ms^.1 in assay [3]; 0.052 ms^.1 in assay [4]; 1.0 ms^.1 in assay [5] (Table 4). Also, the “kcat /Km” value in assay [1] (setting [6]) came to 800 μM^.1 S^.1; in assay [2] (Table 4), 20 μM^.1 S^.1; in assay [3], 0.80 μM^.1 S^.1; in assay [4], 0.63 μM^.1 S^.1; in assay [5] (Table 4), 43 μM^.1 S^.1. Further, the “ko /[E] (rate constant for the zero-order region of catalysis)” value in assay [1] (Table 5, pH 9.6, 20° C.) is 500 S^.1; in assay [2] (Table 5) it was 610 S^.1; in assay [5] (Table 5), 510 S^.1.

These data come from patent US6107070A, “Human manganese superoxide dismutase proteins” (University of Florida, priority 1998, dated 2000).
